Laboratory results reported in ChEMBL document CHEMBL1201862, “PubChem BioAssay data set” (2004).
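The compound was tested at five concentrations on cells cultured in 96-well plates, with a 48-hour exposure period. GI50 = concentration required for 50% inhibition of growth.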 Active and inactive are the calls of the source. No stated cut-off is given here; in the data, active = GI50 up to about 1.1 µM and inactive = higher.

Experiments:
Experiment in all cases: NCI-60 cell line screen, 48 h
[1] = system: A549
[2] = system: HT-29
[3] = system: T47D
[4] = system: 786-0
[5] = system: SF-539
[6] = system: SF-295
[7] = system: SNB-19
[8] = system: SNB-75
[9] = system: HL-60
[10] = system: SF-268
[11] = system: SK-MEL-2
[12] = system: MDA-MB-231
[13] = system: CAKI-1
[14] = system: DU-145
[15] = system: UACC-257
[16] = system: TK-10
[17] = system: SK-MEL-5
[18] = system: M14
[19] = system: MDA-N

Row | SMILES | GI50 [1] | GI50 [2] | GI50 [3] | GI50 [4] | GI50 [5] | GI50 [6] | GI50 [7] | GI50 [8] | GI50 [9] | GI50 [10] | GI50 [11] | GI50 [12] | GI50 [13] | GI50 [14] | GI50 [15] | GI50 [16] | GI50 [17] | GI50 [18] | GI50 [19]
1 | Nc1nc(Cl)cc(NCC2(CO)CCCC2)n1 | > 100 µM (inactive) | > 100 µM (inactive) | > 100 µM (inactive) | > 100 µM (inactive) | > 100 µM (inactive) | > 100 µM (inactive) | > 100 µM (inactive) | 85.7 µM (inactive) | > 100 µM (inactive) | > 100 µM (inactive) | > 100 µM (inactive) | > 100 µM (inactive) | > 100 µM (inactive) | > 100 µM (inactive) | 65.8 µM (inactive) | > 100 µM (inactive) | 80.4 µM (inactive) | > 100 µM (inactive) | > 100 µM (inactive)
2 | O=c1c2cc(I)ccc2nc(SCc2nncs2)n1Cc1ccccc1 | 22.9 µM (inactive) | 31.8 µM (inactive) | 8.93 µM (inactive) | 15 µM (inactive) | 22.8 µM (inactive) | 13.2 µM (inactive) | 19.5 µM (inactive) | 19.1 µM (inactive) | 22.1 µM (inactive) | 14.1 µM (inactive) | 16.1 µM (inactive) | 16.8 µM (inactive) | 2.15 µM (inactive) | 23.1 µM (inactive) | 10.5 µM (inactive) | 29.5 µM (inactive) | 6.71 µM (inactive) | 9.06 µM (inactive) | 23 µM (inactive)
3 | N#Cc1c(-c2nc3ccccc3s2)c(=O)oc2cc(O)ccc12 | 26.9 µM (inactive) | 13 µM (inactive) | 17.7 µM (inactive) | 26.4 µM (inactive) | > 100 µM (inactive) | 36.4 µM (inactive) | 46 µM (inactive) | > 100 µM (inactive) | 23.5 µM (inactive) | 48.6 µM (inactive) | 49.7 µM (inactive) | 22.9 µM (inactive) | 17.5 µM (inactive) | 22.6 µM (inactive) | 24.3 µM (inactive) | > 100 µM (inactive) | 10.2 µM (inactive) | 35.2 µM (inactive) | 33.1 µM (inactive)
4 | Cc1ccc(S(=O)(=O)OC2=C/C(=N\c3onc(C)c3C)c3ccccc3C2=O)cc1 | 51.1 µM (inactive) | 34.2 µM (inactive) | 24.2 µM (inactive) | 37.1 µM (inactive) | 31.8 µM (inactive) | 32.4 µM (inactive) | 26.7 µM (inactive) | 45.7 µM (inactive) | 6.43 µM (inactive) | 23.7 µM (inactive) | 12.9 µM (inactive) | 19.7 µM (inactive) | 20 µM (inactive) | 51.6 µM (inactive) | 15.2 µM (inactive) | 36.6 µM (inactive) | 18.3 µM (inactive) | 18.8 µM (inactive) | 25.2 µM (inactive)
5 | c1ccc(C2=Nc3cccc4cccc(c34)N2)cc1 | 56.9 µM (inactive) | 43.5 µM (inactive) | 4.63 µM (inactive) | 42.8 µM (inactive) | 56.2 µM (inactive) | 58.2 µM (inactive) | > 100 µM (inactive) | > 90.6 µM (inactive) | 2.88 µM (inactive) | 44.8 µM (inactive) | > 46.3 µM (inactive) | 19.7 µM (inactive) | 37.2 µM (inactive) | > 90.2 µM (inactive) | > 69.5 µM (inactive) | 48.9 µM (inactive) | 56.2 µM (inactive) | 44.7 µM (inactive) | 45.3 µM (inactive)
6 | Cc1cccc(C(C)O)n1 (configuration not stated) | > 100 µM (inactive) | > 100 µM (inactive) | > 100 µM (inactive) | > 100 µM (inactive) | > 100 µM (inactive) | > 100 µM (inactive) | > 100 µM (inactive) | > 100 µM (inactive) | > 100 µM (inactive) | > 100 µM (inactive) | > 100 µM (inactive) | > 100 µM (inactive) | > 100 µM (inactive) | > 100 µM (inactive) | > 100 µM (inactive) | > 100 µM (inactive) | > 100 µM (inactive) | > 100 µM (inactive) | > 100 µM (inactive)
7 | O=C(O)C1C2C=CC(O2)C1C(=O)Nc1ncccn1 (configuration not stated) | > 100 µM (inactive) | > 100 µM (inactive) | > 100 µM (inactive) | > 100 µM (inactive) | > 100 µM (inactive) | > 100 µM (inactive) | > 100 µM (inactive) | > 100 µM (inactive) | > 100 µM (inactive) | > 100 µM (inactive) | > 100 µM (inactive) | > 100 µM (inactive) | > 100 µM (inactive) | > 100 µM (inactive) | > 100 µM (inactive) | > 100 µM (inactive) | > 100 µM (inactive) | > 100 µM (inactive) | > 100 µM (inactive)
8 | C=C1C[C@@H](O)[C@@H](Br)C(C)(C)[C@]12CCC(C)(Br)C(Cl)C2 (some centres not stated) | > 50 µM (inactive) | 6.1 µM (inactive) | > 50 µM (inactive) | > 50 µM (inactive) | > 50 µM (inactive) | > 50 µM (inactive) | > 50 µM (inactive) | > 50 µM (inactive) | 1.03 µM (active) | > 50 µM (inactive) | > 50 µM (inactive) | > 50 µM (inactive) | > 50 µM (inactive) | > 50 µM (inactive) | > 50 µM (inactive) | > 50 µM (inactive) | > 50 µM (inactive) | > 50 µM (inactive) | > 50 µM (inactive)
